This passage reports Ke, Emax and EC50 results from ChEMBL document CHEMBL1137556, “Synthetic studies of neoclerodane diterpenes from Salvia divinorum: exploration of the 1-position” (Bioorg Med Chem Lett, 2007).

The target in assay [1] is Delta-type opioid receptor (Homo sapiens) (UniProt P41143).
Description: Antagonist activity at human cloned delta opioid receptor assessed as inhibition of DPDPE-stimulated [35S]GTPgammaS binding
The target in assay [2] is T1, Kappa-type opioid receptor (Homo sapiens, UniProt P41145).
Description: Antagonist activity at human cloned kappa opioid receptor assessed as inhibition of DAMGO-stimulated [35S]GTP-gamma-S binding
The target of assay [3] is T1, Kappa-type opioid receptor. This is another data set of the same source.
Description: Antagonist activity at human cloned kappa opioid receptor assessed as inhibition of U69,593-stimulated [35S]GTP-gamma-S binding
In assay [4] the target is T1, Kappa-type opioid receptor. The assay is described as follows: Efficacy at human kappa opioid receptor by [35S]GTPgammaS binding assay relative to U69,593. The class given is functional. (In general: Binding of GTPγS marks nucleotide exchange on a G protein.)
The target in assay [5] is T1, Kappa-type opioid receptor. The assay is described as follows: Agonist activity at human kappa opioid receptor by [35S]GTPgammaS binding assay. The class given is functional.
The target in assay [6] is T1, Kappa-type opioid receptor. The assay is described as follows: Agonist activity at human kappa opioid receptor assessed as inhibition of Galpha-16-induced calcium flux. The class given is functional. In general terms: Calcium assays in cells follow changes in intracellular calcium, usually with a dye or a luminescent sensor.
Assay [7] addresses T1, Kappa-type opioid receptor. The assay is described as follows: Efficacy at human kappa opioid receptor assessed as inhibition of Galpha-16-induced calcium flux relative to U69,593. It is filed as functional.

T1 sequence (P41145 whole entry): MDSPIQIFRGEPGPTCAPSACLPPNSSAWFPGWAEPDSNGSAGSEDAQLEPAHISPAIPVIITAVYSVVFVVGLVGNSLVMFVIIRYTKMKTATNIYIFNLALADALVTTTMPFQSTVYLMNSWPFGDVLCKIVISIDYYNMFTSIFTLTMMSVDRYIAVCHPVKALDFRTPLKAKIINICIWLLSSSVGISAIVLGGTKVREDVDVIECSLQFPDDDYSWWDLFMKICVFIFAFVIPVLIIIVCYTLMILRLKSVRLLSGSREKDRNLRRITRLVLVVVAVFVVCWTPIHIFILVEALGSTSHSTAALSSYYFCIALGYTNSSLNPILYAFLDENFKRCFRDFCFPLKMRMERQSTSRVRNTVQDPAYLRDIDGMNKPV
Sequence of Delta-type opioid receptor (Homo sapiens) (P41143 whole entry): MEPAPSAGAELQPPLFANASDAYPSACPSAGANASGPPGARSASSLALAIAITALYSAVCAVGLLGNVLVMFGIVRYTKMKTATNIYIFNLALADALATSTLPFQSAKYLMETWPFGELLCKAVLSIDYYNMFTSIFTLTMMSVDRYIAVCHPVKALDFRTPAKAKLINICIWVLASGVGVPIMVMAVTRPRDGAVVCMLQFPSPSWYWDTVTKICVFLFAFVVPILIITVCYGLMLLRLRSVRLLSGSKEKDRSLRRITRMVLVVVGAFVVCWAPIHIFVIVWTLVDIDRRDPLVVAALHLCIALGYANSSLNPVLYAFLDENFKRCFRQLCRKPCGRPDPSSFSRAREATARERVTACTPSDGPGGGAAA

Regarding `COC(=O)[C@@H]1C[C@H](OC(C)=O)C=C2[C@@]1(C)CC[C@H]1C(=O)O[C@H](c3ccoc3)C[C@]21C`, the Ke in assay [1] worked out at 400 nM; in assay [2] it was 200 nM; in assay [3] it was 570 nM.
With `COC(=O)[C@@H]1CC(=O)C=C2[C@@]1(C)CC[C@H]1C(=O)O[C@H](c3ccoc3)C[C@]21C`, the Ke in assay [1] is 3500 nM; in assay [2] it was 700 nM; in assay [3], 460 nM.
For the compound `COC(=O)[C@@H]1C[C@H](OC(=O)c2ccccc2)[C@H](O)[C@H]2[C@@]1(C)CC[C@H]1C(=O)O[C@H](c3ccoc3)C[C@]21C`, the Ke was determined as 2900 nM in assay [1], 1830 nM in assay [2] and 1050 nM in assay [3].
By Emax is commonly meant the size of the effect at its maximum, as opposed to the concentration needed. A word on the EC50: it is the concentration giving half of the maximal effect. In turn, `COC(=O)[C@@H]1C[C@H](OC(C)=O)[C@H](OS(C)(=O)=O)[C@H]2[C@@]1(C)CC[C@H]1C(=O)O[C@H](c3ccoc3)C[C@]21C` [1-ALPHA-MESYLOXYSALVINORIN A] yielded an Emax in assay [4] of 95%. In assay [5], the EC50 was 2.7 µM.
Take `COC(=O)[C@@H]1C[C@H](OC(C)=O)C[C@H]2[C@@]1(C)CC[C@H]1C(=O)O[C@H](c3ccoc3)C[C@]21C`: the Emax in assay [4] was 49%; in assay [7], 93%. The results for the EC50 in assay [5] and in assay [6] were 0.28 µM and 0.00334 µM, respectively. The Ke was 100 nM in assay [1] and 170 nM in assay [2].
With `COC(=O)[C@@H]1C[C@H](OC(=O)c2ccccc2)C=C2[C@@]1(C)CC[C@H]1C(=O)O[C@H](c3ccoc3)C[C@]21C`, the Ke stood at 2300 nM in assay [1], 1740 nM in assay [2] and 580 nM in assay [3].
In the same order, the values of `COC(=O)[C@@H]1C[C@H](OC(=O)c2ccccc2)C[C@H]2[C@@]1(C)CC[C@H]1C(=O)O[C@H](c3ccoc3)C[C@]21C` are 8780 nM, 4700 nM and 580 nM.
In the same order, the values of `COC(=O)[C@@H]1C[C@H](OC(C)=O)[C@H](O)[C@H]2[C@@]1(C)CC[C@H]1C(=O)O[C@H](c3ccoc3)C[C@]21C` are 1790 nM, 2300 nM and 240 nM.
